The assay deals with M. tuberculosis H37Rv growth inhibition. The assay can be described thus: Mycobacterium tuberculosis H37Rv growth inhibition, putative kinase inhibitor library, confirmatory dose response (AID 2842).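 Also: bacteria incubated one week before Alamar blue readout.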

Our source for the IC90 values is PubChem BioAssay AID2842 (Southern Research Institute, 2010).

In brackets after ≈: the same amount, converted by molar mass. Where only a bound is given, the exact number is not on record here.

As usually defined, the IC90 is the concentration needed for an effect of 90%.

As for `CCOc1cc(-c2nnc(NC(=O)c3cccs3)o2)cc(OCC)c1OCC`, the IC90 was 3.02 µg/mL (≈ 7.49 µM).
As to `CCOc1ccc2nc(N(CCCn3ccnc3)C(=O)c3cccs3)sc2c1`, the IC90 was 3.43 µg/mL (≈ 8.31 µM).
In the case of `Cc1cc(C)c2nc(NNC(=O)c3ccc(N(C)C)cc3)sc2c1`, the IC90 is 3.23 µg/mL (≈ 9.49 µM).
Turning to `Cc1ccc(C2C=C(c3ccc(Cl)cc3)Nc3ncnn32)cc1` (stereo not given), the IC90 is 6.94 µg/mL (≈ 21.5 µM).
With `CCOC(=O)C(C)Sc1ncnc2c1cnn2-c1ccc(F)cc1` (stereo not given), the IC90 was 4.73 µg/mL (≈ 13.7 µM).
As to `COc1cccc2sc(Nc3nc4ccc(C(C)C)cc4s3)nc12`, the IC90 is 2.24 µg/mL (≈ 6.3 µM).
In the case of `Cc1ccc2c(c1)C(c1ccccc1)N(C(=O)c1ccc(-c3ccccc3)cc1)CC(=O)N2` (stereo not given), the IC90 was 5.05 µg/mL (≈ 11.7 µM).
On to `O=C(CCSc1ccccc1)Nc1nnc(-c2cccs2)o1`, for which the IC90 is 7.87 µg/mL (≈ 23.7 µM).
As to `CCOC(=O)N1CCN(c2ncnc3c2cnn3-c2ccc(C)cc2)CC1`, the IC90 was 21.4 µg/mL (≈ 58.5 µM).
Turning to `O=C(Nc1nnc(C2=COCCO2)o1)c1ccc(F)cc1`, the IC90 was 2.21 µg/mL (≈ 7.59 µM).
Consider `Clc1ccc(Cn2nnc3c(SCc4cccnc4)ncnc32)cc1`, for which the 90% effect concentration (IC90) was 13.4 µg/mL (≈ 36.3 µM).
`COc1cccc2sc(N(CCCn3ccnc3)C(=O)c3cccs3)nc12`: the IC90 is 5.7 µg/mL (≈ 14.3 µM).
Consider `COc1ccc(-c2nc(N3CCCCC3)nc3n[nH]c(N)c23)cc1`, for which the IC90 was 12.9 µg/mL (≈ 39.8 µM).
On to `COC(=O)c1ccc(CSc2nnc(-c3ccncc3)o2)o1`, for which the IC90 is 5.77 µg/mL (≈ 18.2 µM).
As for `C=CCOC(=O)COc1ccc2c(C)c(-c3ccccc3)c(=O)oc2c1`, the IC90 is 0.85 µg/mL (≈ 2.43 µM).
Regarding `CC1CCN(S(=O)(=O)c2ccc(C(=O)NNc3nc4c(Cl)cccc4s3)cc2)CC1`, the IC90 was 24.7 µg/mL (≈ 53.1 µM).
In the case of `Cc1ccc(-c2nnc(NC(=O)c3ccc(S(=O)(=O)N(C)C4CCCCC4)cc3)o2)c(C)c1`, the IC90 is 39.2 µg/mL (≈ 83.6 µM).
Turning to `O=C(Nc1nnc(-c2cc(Cl)ccc2Cl)o1)c1cccs1`, the concentration for an effect of 90% (IC90) is 0.76 µg/mL (≈ 2.23 µM).
With `O=C(Nc1nnc(-c2cccnc2)o1)c1cc(Cl)ccc1Cl`, the 90% effect concentration (IC90) was 27.9 µg/mL (≈ 83.1 µM).
Take `O=C(Nc1nnc(-c2ccco2)o1)c1ccc(Oc2ccccc2)cc1`: the IC90 is under 0.2 µg/mL.
As for `CCCCOc1cccc(C(=O)Nc2nnc(-c3cc(C)ccc3C)o2)c1`, the IC90 is 12.4 µg/mL (≈ 33.9 µM).
Take `Cc1ccc(-c2nnc(NC(=O)c3ccc(Br)s3)o2)c(C)c1`: the IC90 was 2.17 µg/mL (≈ 5.74 µM).
For the compound `O=C(c1cccs1)N(CCCn1ccnc1)c1nc2ccccc2s1`, the IC90 is 6 µg/mL (≈ 16.3 µM).
For `COc1cccc2sc(Nc3nc4ccc(Cl)cc4s3)nc12` the value was 13.9 µg/mL (≈ 40 µM); for `Cc1ccc(C)c(-c2nnc(NC(=O)c3cccc(Br)c3)o2)c1`, 12.6 µg/mL (≈ 33.9 µM); for `O=C(Cc1cccc2ccccc12)Nc1nnc(-c2cc(Cl)ccc2Cl)o1`, 94.5 µg/mL (≈ 237 µM).
`CCN(C1CCCCC1)S(=O)(=O)c1ccc(C(=O)Nc2nnc(-c3ccc(F)cc3)o2)cc1`: the IC90 is 5.64 µg/mL (≈ 11.9 µM).
For `Cc1ccc(NCCn2c(C)cn3c4c(=O)[nH]c(=O)n(C)c4nc23)cc1`, the 90% effect concentration (IC90) is 15.1 µg/mL (≈ 42.9 µM).
For `Cc1ccc(C)c(-c2nnc(NC(=O)c3cc(Cl)sc3Cl)o2)c1` the value was 2.16 µg/mL (≈ 5.87 µM); for `COc1ccc2nc(Nc3nc(-c4ccccn4)cs3)sc2c1`, under 0.2 µg/mL.
As for `CCOC(=O)N1CCc2c(sc(NC(=O)CCSc3ccccc3)c2C(N)=O)C1`, the figure is 8.5 µg/mL (≈ 19.6 µM); as for `O=Nc1c(-c2ccccc2)cc2ccccn12`, 3.32 µg/mL (≈ 14.9 µM).
In the case of `Fc1cccc2sc(Nc3nc(-c4ccccn4)cs3)nc12`, the IC90 is under 0.2 µg/mL.
Take `CS(=O)(=O)NNc1ccc([N+](=O)[O-])cc1[N+](=O)[O-]`: the IC90 is 11.6 µg/mL (≈ 41.9 µM).
For `O=C(/C=C/c1cccs1)Nc1nnc(-c2ccc3c(c2)OCCO3)o1`, the IC90 was 37 µg/mL (≈ 104 µM).
In the case of `O=C(Cc1ccc(F)cc1)N(CCCn1ccnc1)c1nc2c(F)cccc2s1`, the IC90 was 3.66 µg/mL (≈ 8.87 µM).
Regarding `O=C(NNc1nc2c(F)cccc2s1)c1cc2ccccc2oc1=O`, the IC90 is 8.19 µg/mL (≈ 23 µM).
In the case of `O=C(Nc1nnc(-c2ccc(Br)cc2)o1)c1ccc(S(=O)(=O)N2CCCCCC2)cc1`, the IC90 is 16 µg/mL (≈ 31.7 µM).
For `COc1cc(/C=C(\C#N)c2nc(-c3ccc(C)cc3)cs2)cc([N+](=O)[O-])c1O` the value was 3.26 µg/mL (≈ 8.29 µM); for `Cc1ccc(C)c(-c2nnc(NC(=O)c3cccc(F)c3)o2)c1`, 30.9 µg/mL (≈ 99.2 µM).
For `Cc1ccc(/C(O)=C2\C(=O)C(=O)N(c3ccccn3)C2c2cccc(Br)c2)cc1` (stereo not given) the value was 21.4 µg/mL (≈ 47.7 µM); for `O=C(Nc1nnc(-c2ccc3c(c2)CCCC3)o1)c1ccccc1F`, 0.93 µg/mL (≈ 2.76 µM).
As for `Cc1sc2nc(SCC#N)[nH]c(=O)c2c1C`, the figure is 17.3 µg/mL (≈ 69 µM); as for `Cc1ccc(-c2nnc(NC(=O)C(C)C)o2)c(C)c1`, 8.43 µg/mL (≈ 32.5 µM); as for `COc1ccc(C2CC(c3c(-c4ccccc4)c4cc(Br)ccc4[nH]c3=O)=NN2C(=O)c2ccccc2)cc1` (stereo not given), 1.07 µg/mL (≈ 1.85 µM).
As for `CCc1cccc(OCC(O)Cn2c(NCc3ccccc3)nc3c2c(=O)[nH]c(=O)n3C)c1` (stereo not given), the IC90 was 22.1 µg/mL (≈ 49.1 µM).
Take `COc1cc(Br)cc(/C=N/Nc2nc(=O)[nH]nc2C)c1O`: the IC90 is under 0.2 µg/mL.
For the compound `O=C(CSc1ncnc2c1oc1ccccc12)OCc1ccccc1`, the IC90 is 12.1 µg/mL (≈ 34.6 µM).
As for `Cc1ccc(C)c2sc(N(CCCn3ccnc3)C(=O)COc3ccccc3)nc12`, the IC90 is 6.05 µg/mL (≈ 14.4 µM).
In the case of `COc1cccc(C(=O)NNc2nc3c(C)cccc3s2)c1`, the 90% effect concentration (IC90) is 11.6 µg/mL (≈ 37.1 µM).
